Assay results published in ChEMBL document CHEMBL3352001, “2,4-Dialkyl-8,9,10,11-tetrahydrobenzo[g]pyrimido[4,5-c]isoquinoline-1,3,7,12(2H,4H)-tetraones as new leads against Mycobacterium tuberculosis” (Eur J Med Chem, 2014).
≈ marks a conversion by molar mass, not a printed value.

Key:
[1] = Cytotoxicity against mouse J774A1 cells after 24 hrs by neutral red dye uptake assay; type: cell-based; conditions: J774.A1, 24 h, read-out: I50
[2] = Selectivity index, ratio of I50 for mouse J774A1 cells to GI50 for Mycobacterium tuberculosis H37Rv; type: toxicity, cell-based, J774.A1; conditions: read-out: Selectivity Index
[3] = tested on: Salmonella typhimurium; assay: Genotoxicity in Salmonella typhimurium Cytox (pr1) expressing lux operon assessed as S/N ratio at 0.1 to 10 ug/mL measured for 4 hrs with 5 mins interval by vitotox assay in presence of S9 fraction; type: toxicity, organism-based; conditions: salmonella enterica subsp. enterica serovar typhimurium, s9, 4 h
[4] = tested on: Mycobacterium tuberculosis; assay: Antimycobacterial activity against Mycobacterium tuberculosis H37Rv infected in mouse J774A1 cells assessed as reduction in bacterial load inside the cell at 3.13 ug/mL treatment stated after 24 hrs of infection for 4 days by luminometry; type: functional, J774.A1; design: scale not given: the % may be the effect or the level left
[5] = tested on: Salmonella typhimurium; assay: Genotoxicity in Salmonella typhimurium T104 Genox (recN2-4) expressing lux operon assessed as S/N ratio at 0.1 to 10 ug/mL measured for 4 hrs with 5 mins interval by vitotox assay; type: toxicity, organism-based; conditions: salmonella enterica subsp. enterica serovar typhimurium
[6] = tested on: Mycobacterium tuberculosis; assay: Antimycobacterial activity against Mycobacterium tuberculosis H37Rv infected in mouse J774A1 cells assessed as reduction in extracellular bacterial load at 3.13 ug/mL treatment stated after 24 hrs of infection for 4 days by luminometry; type: functional, J774.A1
[7] = tested on: Salmonella typhimurium; assay: Genotoxicity in Salmonella typhimurium Cytox (pr1) expressing lux operon assessed as S/N ratio at 0.1 to 10 ug/mL measured for 4 hrs with 5 mins interval by vitotox assay; type: toxicity, organism-based; conditions: salmonella enterica subsp. enterica serovar typhimurium
[8] = tested on: Mycobacterium tuberculosis; assay: Antimycobacterial activity against Mycobacterium tuberculosis H37Rv infected in mouse J774A1 cells assessed as reduction in bacterial load inside the cell at 6.25 ug/mL treatment stated after 24 hrs of infection for 4 days by luminometry; type: functional, J774.A1; design: scale not given: the % may be the effect or the level left
[9] = Cytotoxicity against mouse J774A1 cells assessed as structural organization of DNA at 0.5 to 5 ug/mL after 24 hrs by Comet assay; type: cell-based; conditions: j774.a1, 24 h
[10] = tested on: Salmonella typhimurium; assay: Genotoxicity in Salmonella typhimurium T104 Genox (recN2-4) expressing lux operon assessed as S/N ratio at 0.1 to 10 ug/mL measured for 4 hrs with 5 mins interval by vitotox assay in presence of S9 fraction; type: toxicity, organism-based; conditions: salmonella enterica subsp. enterica serovar typhimurium, s9, 4 h
[11] = tested on: Mycobacterium tuberculosis; assay: Antimycobacterial activity against Mycobacterium tuberculosis H37Rv infected in mouse J774A1 cells assessed as reduction in bacillary replication at 12.5 ug/mL treatment stated after 24 hrs of infection for 4 days by luminometry; type: functional, J774.A1
[12] = tested on: Mycobacterium tuberculosis; assay: Antimycobacterial activity against Mycobacterium tuberculosis H37Rv infected in mouse J774A1 cells assessed as reduction in bacillary replication at 6.25 ug/mL treatment stated after 24 hrs of infection for 4 days by luminometry; type: functional, J774.A1
[13] = tested on: Mycobacterium tuberculosis; assay: Antimycobacterial activity against Mycobacterium tuberculosis H37Rv infected in mouse J774A1 cells assessed as reduction in bacillary replication at 3.13 ug/mL treatment stated after 24 hrs of infection for 4 days by luminometry; type: functional, J774.A1

SMILES | IC50 [1] [µg/mL] | selectivity ratio [2] | further results
Cn1c(=O)c2c3c(cnc2n(C)c1=O)C(=O)C1=C(C3=O)C2CCC1C2 (stereo not given) | 15.4 (≈ 45.5 µM) | 9.72 | –
CCn1c(=O)c2c3c(cnc2n(CC)c1=O)C(=O)C1=C(C3=O)C2CCC1C2 (stereo not given) | 18.2 (≈ 49.9 µM) | 10.8 | –
CCCn1c(=O)c2c3c(cnc2n(CCC)c1=O)C(=O)C1=C(C3=O)C2CCC1C2 (stereo not given) | 18.7 (≈ 47.5 µM) | 18.7 | –
CC(C)n1c(=O)c2c3c(cnc2n(C(C)C)c1=O)C(=O)C1=C(C3=O)C2CCC1C2 (stereo not given) | 9.71 (≈ 24.7 µM) | 10.8 | Ratio [3]: < 1.5; Activity [4]: 57.72%; Ratio [5]: 0.8; inhibition (INH) [6]: 99%; Ratio [7]: < 1.5; Activity [8]: 98.03%; Activity [9]: Non-toxic; Ratio [10]: 0.8
CCCCn1c(=O)c2c3c(cnc2n(CCCC)c1=O)C(=O)C1=C(C3=O)C2CCC1C2 (stereo not given) | 9.5 (≈ 22.5 µM) | 6.51 | –
CC(C)Cn1c(=O)c2c3c(cnc2n(CC(C)C)c1=O)C(=O)C1=C(C3=O)C2CCC1C2 (stereo not given) | 16.8 (≈ 39.8 µM) | 8.06 | –
CCCCCn1c(=O)c2c3c(cnc2n(CCCCC)c1=O)C(=O)C1=C(C3=O)C2CCC1C2 (stereo not given) | 13.4 (≈ 29.7 µM) | 10.6 | –
CC(C)CCn1c(=O)c2c3c(cnc2n(CCC(C)C)c1=O)C(=O)C1=C(C3=O)C2CCC1C2 (stereo not given) | 22.5 (≈ 50 µM) | 9.32 | –
CCCCCCn1c(=O)c2c3c(cnc2n(CCCCCC)c1=O)C(=O)C1=C(C3=O)C2CCC1C2 (stereo not given) | 12.1 (≈ 25.3 µM) | 9.9 | –
CCCCCCCn1c(=O)c2c3c(cnc2n(CCCCCCC)c1=O)C(=O)C1=C(C3=O)C2CCC1C2 (stereo not given) | 26.5 (≈ 52.3 µM) | 42 | Ratio [3]: < 1.5; Ratio [5]: 0.8; Ratio [7]: < 1.5; inhibition (INH) [11]: 91.3%; inhibition (INH) [12]: 80.4%; inhibition (INH) [13]: 65.5%; Activity [9]: Non-toxic; Ratio [10]: 0.8
Cn1c(=O)c2c3c(cnc2n(C)c1=O)C(=O)C1=C(C3=O)C2CCC1CC2 | 16.8 (≈ 47.8 µM) | 5.94 | –
CCn1c(=O)c2c3c(cnc2n(CC)c1=O)C(=O)C1=C(C3=O)C2CCC1CC2 | 19.9 (≈ 52.4 µM) | 7.79 | –
CCCn1c(=O)c2c3c(cnc2n(CCC)c1=O)C(=O)C1=C(C3=O)C2CCC1CC2 | 22 (≈ 54 µM) | 8.5 | –
CC(C)n1c(=O)c2c3c(cnc2n(C(C)C)c1=O)C(=O)C1=C(C3=O)C2CCC1CC2 | 11.8 (≈ 28.9 µM) | 16.1 | Ratio [3]: < 1.5; Ratio [5]: 0.8; Ratio [7]: < 1.5; inhibition (INH) [12]: 82.3%; inhibition (INH) [13]: 58.7%; Activity [9]: Non-toxic; Ratio [10]: 0.8
CCCCn1c(=O)c2c3c(cnc2n(CCCC)c1=O)C(=O)C1=C(C3=O)C2CCC1CC2 | 9.87 (≈ 22.7 µM) | 5.36 | –
CC(C)Cn1c(=O)c2c3c(cnc2n(CC(C)C)c1=O)C(=O)C1=C(C3=O)C2CCC1CC2 | 20.4 (≈ 46.9 µM) | 4.69 | –
CCCCCn1c(=O)c2c3c(cnc2n(CCCCC)c1=O)C(=O)C1=C(C3=O)C2CCC1CC2 | 16.4 (≈ 35.3 µM) | 11 | –
CC(C)CCn1c(=O)c2c3c(cnc2n(CCC(C)C)c1=O)C(=O)C1=C(C3=O)C2CCC1CC2 | 23.4 (≈ 50.4 µM) | 4.77 | –
CCCCCCn1c(=O)c2c3c(cnc2n(CCCCCC)c1=O)C(=O)C1=C(C3=O)C2CCC1CC2 | 13.7 (≈ 27.9 µM) | 10.1 | –
CCCCCCCn1c(=O)c2c3c(cnc2n(CCCCCCC)c1=O)C(=O)C1=C(C3=O)C2CCC1CC2 | 32.8 (≈ 63.1 µM) | 24.8 | Ratio [3]: < 1.5; Ratio [5]: 0.8; Ratio [7]: < 1.5; inhibition (INH) [11]: 92%; inhibition (INH) [12]: 68.8%; Activity [9]: Non-toxic; Ratio [10]: 0.8
